In US8906904B2, “Alkoxy pyrazoles as soluble guanylate cyclase activators” (Boehringer Ingelheim International GmbH, priority 2012, dated 2014):
Values after ≈ are worked out from the molar mass of the structure shown.

How the values were obtained:
[1] = Assessment of solubility (McIlvaine buffers, 24 h shake, UPLC-UV); format: physicochemical; conditions: kinetic from dmso stock
Method in brief: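 Compounds from 10 mM DMSO stocks were shaken for 24 h at room temperature in McIlvaine buffers at pH 2.2, 4.5 and 6.8 (2.5% v/v DMSO final), then filtered. Filtrates were quantified by UPLC-UV at 254 nm against a 50:50 acetonitrile/water reference assumed fully dissolved, as a single determination.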

[2] = human liver microsome (HLM) metabolic stability assay; format: in vitro ADME; conditions: human liver microsomes; % hepatic blood flow calculated from t1/2
Method in brief: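 Compounds at 1 uM incubated with human liver microsomes plus NADPH at 37° C., sampled at 0, 5, 15, 30 and 60 min into cold acetonitrile and quantified by LC/MS/MS. t½ from the slope of ln % remaining vs time; CLint, CLh and % Qh derived from it (n=1).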

Compound	solubility at 24 h ([1]; pH 2.2, aqueous buffer)	solubility at 24 h ([1]; pH 4.5, aqueous buffer)	solubility at 24 h ([1]; pH 6.8, aqueous buffer)	HLM (% Qh) [2]
CCOc1c(C(=O)O)cnn1-c1cccc(-c2cccc(C)c2OCc2ccc3c(c2)CCN(C2CCOCC2)C3)n1 [Compound 77]	96 µg/mL (≈ 169 µM)	83 µg/mL (≈ 146 µM)	87 µg/mL (≈ 153 µM)	<24 % Qh
CCOc1c(C(=O)O)cnn1-c1cccc(-c2cccc(C)c2OCc2ccc3c(c2)CCN(C2CCOCC2F)C3)n1 (stereo not drawn) [Compound 94]	91 µg/mL (≈ 155 µM)	68 µg/mL (≈ 116 µM)	73 µg/mL (≈ 124 µM)	<24 % Qh
COc1c(C(=O)O)cnn1-c1cccc(-c2cccc(C)c2OCc2ccc3c(c2)CCN(C2CCOCC2C)C3)n1 (stereo not drawn) [Compound 86]	110 µg/mL (≈ 193 µM)	90 µg/mL (≈ 158 µM)	91 µg/mL (≈ 160 µM)	<24 % Qh
Cc1cccc(-c2cccc(-n3ncc(C(=O)O)c3OC(C)C)n2)c1OCc1ccc2c(c1)CCN(C1CCC(F)(F)CC1)C2 [Compound 2]	110 µg/mL (≈ 178 µM)	83 µg/mL (≈ 135 µM)	88 µg/mL (≈ 143 µM)	<24 % Qh
Cc1cccc(-c2cccc(-n3ncc(C(=O)O)c3OC(C)C)n2)c1OCc1ccc2c(c1C)CCN(CC1(C)COC1)C2 [Compound 46]	100 µg/mL (≈ 168 µM)	82 µg/mL (≈ 137 µM)	86 µg/mL (≈ 144 µM)	<24 % Qh
COc1c(C(=O)O)cnn1-c1cccc(-c2cccc(C)c2OCc2ccc3c(c2)CCN(CC2CC2(F)F)C3)n1 (stereo not drawn) [Compound 72, 1-(6-{2-[2-(2,2-difluoro-cyclopropylmethyl)-1,2,3,4-tetrahydro-isoquinolin-6-ylmethoxy]-3-methyl-phenyl}-pyridin-2-yl)-5-methoxy-1H-pyrazole-4-carboxylic acid]	44 µg/mL (≈ 78.5 µM)	46 µg/mL (≈ 82.1 µM)	67 µg/mL (≈ 120 µM)	47 % Qh
CCOc1c(C(=O)O)cnn1-c1cccc(-c2cccc(C)c2OCc2ccc3c(c2)CCN(C2CC(C)(C)OC(C)(C)C2)C3)n1 [Compound 67]	90 µg/mL (≈ 144 µM)	76 µg/mL (≈ 122 µM)	78 µg/mL (≈ 125 µM)	<24 % Qh
CCOc1c(C(=O)O)cnn1-c1cccc(-c2cccc(C)c2OCc2ccc3c(c2)CCN(C2CCOC2)C3)n1 (stereo not drawn) [Compound 35]	93 µg/mL (≈ 168 µM)	73 µg/mL (≈ 132 µM)	78 µg/mL (≈ 141 µM)	<24 % Qh
CCOc1c(C(=O)O)cnn1-c1cccc(-c2cccc(Cl)c2OCc2ccc3c(c2)CCN(C2CCOC2)C3)n1 (stereo not drawn) [Compound 55]	98 µg/mL (≈ 170 µM)	48 µg/mL (≈ 83.5 µM)	49 µg/mL (≈ 85.2 µM)	<24 % Qh
COc1c(C(=O)O)cnn1-c1cccc(-c2cccc(C)c2OCc2ccc3c(c2C)CCN(CC(C)(C)C)C3)n1 [Compound 30]	100 µg/mL (≈ 180 µM)	81 µg/mL (≈ 146 µM)	75 µg/mL (≈ 135 µM)	<24 % Qh
COCC(C)N1CCc2cc(COc3c(C)cccc3-c3cccc(-n4ncc(C(=O)O)c4OC(C)C)n3)ccc2C1 (stereo not drawn) [Compound 38]	110 µg/mL (≈ 193 µM)	94 µg/mL (≈ 165 µM)	88 µg/mL (≈ 154 µM)	<24 % Qh
COc1c(C(=O)O)cnn1-c1cccc(-c2cccc(C)c2OCc2ccc3c(c2)CCN(C2CCOC(C)(C)C2)C3)n1 (stereo not drawn) [Compound 61]	130 µg/mL (≈ 223 µM)	110 µg/mL (≈ 189 µM)	99 µg/mL (≈ 170 µM)	<24 % Qh
Cc1cccc(-c2cccc(-n3ncc(C(=O)O)c3OC(C)C)n2)c1OCc1ccc2c(c1C)CCN(C1COC1)C2 [Compound 45]	82 µg/mL (≈ 144 µM)	61 µg/mL (≈ 107 µM)	73 µg/mL (≈ 128 µM)	<24 % Qh
COc1c(C(=O)O)cnn1-c1cccc(-c2cccc(C)c2OCc2ccc3c(c2)CCN(C2CCOCC2)C3)n1 [Compound 3]	96 µg/mL (≈ 173 µM)	79 µg/mL (≈ 142 µM)	81 µg/mL (≈ 146 µM)	<24 % Qh
COc1c(C(=O)O)cnn1-c1cccc(-c2cccc(C)c2OCc2ccc3c(c2)CCN(CCS(C)(=O)=O)C3)n1 [Compound 74]	110 µg/mL (≈ 191 µM)	83 µg/mL (≈ 144 µM)	95 µg/mL (≈ 165 µM)	<24 % Qh
COc1c(C(=O)O)cnn1-c1cccc(-c2cccc(C(F)(F)F)c2OCc2ccc3c(c2)CCN(C2CCOCC2)C3)n1 [Compound 83]	110 µg/mL (≈ 181 µM)	88 µg/mL (≈ 145 µM)	95 µg/mL (≈ 156 µM)	<24 % Qh
Cc1cccc(-c2cccc(-n3ncc(C(=O)O)c3OC(C)C)n2)c1OCc1ccc2c(c1)CCN(C1CCOC1)C2 (stereo not drawn) [Compound 41]	96 µg/mL (≈ 169 µM)	75 µg/mL (≈ 132 µM)	80 µg/mL (≈ 141 µM)	<24 % Qh

Compound	solubility at 24 h ([1]; pH 2.2, aqueous buffer)	solubility at 24 h ([1]; pH 4.5, aqueous buffer)	solubility at 24 h ([1]; pH 6.8, aqueous buffer)	HLM (% Qh) [2]
CCOc1c(C(=O)O)cnn1-c1cccc(-c2cccc(Cl)c2OCc2ccc3c(c2)CCN(C(C)CO)C3)n1 (stereo not drawn) [Compound 56]	87 µg/mL (≈ 155 µM)	66 µg/mL (≈ 117 µM)	77 µg/mL (≈ 137 µM)	<24 % Qh
CCOc1c(C(=O)O)cnn1-c1cccc(-c2cccc(Cl)c2OCc2ccc3c(c2)CCNC3)n1 [Compound 50]	120 µg/mL (≈ 238 µM)	79 µg/mL (≈ 156 µM)	75 µg/mL (≈ 149 µM)	40 % Qh
Cc1cccc(-c2cccc(-n3ncc(C(=O)O)c3OC(C)C)n2)c1OCc1ccc2c(c1)CCN(C1COC1)C2 [Compound 39]	93 µg/mL (≈ 168 µM)	44 µg/mL (≈ 79.3 µM)	81 µg/mL (≈ 146 µM)	<24 % Qh
COc1c(C(=O)O)cnn1-c1cccc(-c2cccc(C)c2OCc2ccc3c(c2)CCN(C2CC(C)(C)OC(C)(C)C2)C3)n1 [Compound 73]	86 µg/mL (≈ 141 µM)	67 µg/mL (≈ 110 µM)	71 µg/mL (≈ 116 µM)	36 % Qh
COc1c(C(=O)O)cnn1-c1cccc(-c2cccc(C)c2OCc2ccc3c(c2)CN(CC2CC(F)(F)C2)C3)n1 [Compound 82]	120 µg/mL (≈ 214 µM)	100 µg/mL (≈ 178 µM)	97 µg/mL (≈ 173 µM)	<24 % Qh
CCOc1c(C(=O)O)cnn1-c1cccc(-c2cccc(C)c2OCc2ccc3c(c2)CCN(C2CCOC2C)C3)n1 (stereo not drawn) [Compound 71]	94 µg/mL (≈ 165 µM)	75 µg/mL (≈ 132 µM)	78 µg/mL (≈ 137 µM)	<24 % Qh
COc1c(C(=O)O)cnn1-c1cccc(-c2cccc(C)c2OCc2ccc3c(c2)C(C)(C)CN(C2CCOCC2)C3)n1 [Compound 89]	130 µg/mL (≈ 223 µM)	92 µg/mL (≈ 158 µM)	81 µg/mL (≈ 139 µM)	76 % Qh
CCOc1c(C(=O)O)cnn1-c1cccc(-c2cccc(C)c2OCc2ccc3c(c2)CCN(CC2CCOC(C)(C)C2)C3)n1 (stereo not drawn) [Compound 80]	110 µg/mL (≈ 180 µM)	94 µg/mL (≈ 154 µM)	95 µg/mL (≈ 156 µM)	<24 % Qh
COc1c(C(=O)O)cnn1-c1cccc(-c2cccc(C)c2OCc2ccc3c(c2)CN(C2COC2)C3)n1 [Compound 85]	120 µg/mL (≈ 234 µM)	96 µg/mL (≈ 187 µM)	110 µg/mL (≈ 215 µM)	<24 % Qh
COCC(C)N1CCc2c(ccc(COc3c(C)cccc3-c3cccc(-n4ncc(C(=O)O)c4OC(C)C)n3)c2C)C1 (stereo not drawn) [Compound 44]	100 µg/mL (≈ 171 µM)	85 µg/mL (≈ 145 µM)	88 µg/mL (≈ 151 µM)	<24 % Qh
COc1c(C(=O)O)cnn1-c1cccc(-c2cccc(C)c2OCc2ccc3c(c2)CCN(C2CCOCC2OC)C3)n1 (stereo not drawn) [Compound 81]	100 µg/mL (≈ 171 µM)	84 µg/mL (≈ 144 µM)	79 µg/mL (≈ 135 µM)	<24 % Qh
CCOc1c(C(=O)O)cnn1-c1cccc(-c2cccc(C)c2OCc2ccc3c(c2)CCN(C2CCOC(CC)C2)C3)n1 (stereo not drawn) [Compound 79]	100 µg/mL (≈ 168 µM)	87 µg/mL (≈ 146 µM)	89 µg/mL (≈ 149 µM)	<24 % Qh
COc1c(C(=O)O)cnn1-c1cccc(-c2cccc(F)c2OCc2ccc3c(c2)CCN(C2CCOCC2)C3)n1 [Compound 63]	110 µg/mL (≈ 197 µM)	90 µg/mL (≈ 161 µM)	92 µg/mL (≈ 165 µM)	<24 % Qh
Cc1cccc(-c2cccc(-n3ncc(C(=O)O)c3OC(C)C)n2)c1OCc1ccc2c(c1)CCN(C(C)C)C2 [Compound 37]	92 µg/mL (≈ 170 µM)	74 µg/mL (≈ 137 µM)	78 µg/mL (≈ 144 µM)	<24 % Qh
COc1c(C(=O)O)cnn1-c1cccc(-c2cccc(C(F)(F)F)c2OCc2ccc3c(c2)CN(C2CCOCC2)C3)n1 [Compound 93]	98 µg/mL (≈ 165 µM)	77 µg/mL (≈ 130 µM)	81 µg/mL (≈ 136 µM)	<24 % Qh
COc1c(C(=O)O)cnn1-c1cccc(-c2cccc(C)c2OCc2ccc3c(c2C)CCN(C2CCOC2)C3)n1 (stereo not drawn) [Compound 31]	110 µg/mL (≈ 198 µM)	89 µg/mL (≈ 160 µM)	94 µg/mL (≈ 169 µM)	<24 % Qh
